Results as given in patent US20250114338A1, “TETRAHYDRO-PYRIDO[3,4-b]INDOLE ESTROGEN RECEPTOR MODULATORS AND USES THEREOF” (Genentech, Inc., priority 2014, published 2025).

The compounds below were run on ER-alpha MCF7 (assay: ER-alpha MCF7 HCS EC50; stated as measured by in vitro cell proliferation assays of Examples 902 and 903). Details: Homo sapiens, MCF7, MCF7 cells; Table 2.
Format: cell-based
How it was run: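 MCF7 cells seeded 1000-2000 cells/well for 16 h, then treated with nine-point 1:2 DMSO dilution series in quadruplicate at 37 °C, 5% CO2 for 4 days. Viable cells quantified by CellTiter-Glo ATP luminescence; EC50 calculated. Controls: fulvestrant at final 100 nM, DMSO 0.2% v/v.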

Row | Compound | EC50
1 | C[C@@H]1Cc2c([nH]c3ccccc23)[C@@H](c2ccc(NC3CN(CCCF)C3)cc2F)N1C[C@@](C)(F)CO [Example 290, (R)-2-fluoro-3-((1R,3R)-1-(2-fluoro-4-((1-(3-fluoropropyl)azetidin-3-yl)amino)phenyl)-3-methyl-1,3,4,9-tetrahydro-2H-pyrido[3,4-b]indol-2-yl)-2-methylpropan-1-ol] | 0.497 nM
2 | C[C@@H]1Cc2c([nH]c3ccccc23)[C@@H](c2ccc(NC3CN(CCCF)C3)cc2F)N1C[C@](C)(F)CO [Example 291, (S)-2-fluoro-3-((1R,3R)-1-(2-fluoro-4-((1-(3-fluoropropyl)azetidin-3-yl)amino)phenyl)-3-methyl-1,3,4,9-tetrahydro-2H-pyrido[3,4-b]indol-2-yl)-2-methylpropan-1-ol] | 0.13 nM
3 | C[C@@H]1Cc2c([nH]c3ccccc23)[C@@H](c2ccc(NC3CN(CCCF)C3)cc2)N1C[C@@](C)(F)CO [Example 292, (R)-2-fluoro-3-((1R,3R)-1-(4-((1-(3-fluoropropyl)azetidin-3-yl)amino)phenyl)-3-methyl-1,3,4,9-tetrahydro-2H-pyrido[3,4-b]indol-2-yl)-2-methylpropan-1-ol] | 2 nM
4 | C[C@@H]1Cc2c([nH]c3ccccc23)[C@@H](c2ccc(NC3CN(CCCF)C3)cc2)N1C[C@](C)(F)CO [Example 293, (S)-2-fluoro-3-((1R,3R)-1-(4-((1-(3-fluoropropyl)azetidin-3-yl)amino)phenyl)-3-methyl-1,3,4,9-tetrahydro-2H-pyrido[3,4-b]indol-2-yl)-2-methylpropan-1-ol] | 0.15 nM
5 | C[C@@H]1Cc2c([nH]c3ccccc23)[C@@H](c2c(F)cc(NCCN3CC(CF)C3)cc2F)N1CC(F)(F)F [Example 296, 3,5-difluoro-N-(2-(3-(fluoromethyl)azetidin-1-yl)ethyl)-4-((1R,3R)-3-methyl-2-(2,2,2-trifluoroethyl)-2,3,4,9-tetrahydro-1H-pyrido[3,4-b]indol-1-yl)aniline] | 0.2 nM
6 | C[C@@H]1Cc2c([nH]c3ccccc23)[C@@H](c2c(F)cc(OCCN3CC(CF)C3)cc2F)N1C[C@H](C)C(=O)N(C)C [Example 297, (S)-3-((1R,3R)-1-(2,6-difluoro-4-(2-(3-(fluoromethyl)azetidin-1-yl)ethoxy)phenyl)-3-methyl-1,3,4,9-tetrahydro-2H-pyrido[3,4-b]indol-2-yl)-N,N,2-trimethylpropanamide] | 18 nM
7 | C[C@H](CN1[C@H](c2c(F)cc(OCCN3CC(CF)C3)cc2F)c2[nH]c3ccccc3c2C[C@H]1C)C(=O)N(C)C [Example 298, (R)-3-((1R,3R)-1-(2,6-difluoro-4-(2-(3-(fluoromethyl)azetidin-1-yl)ethoxy)phenyl)-3-methyl-1,3,4,9-tetrahydro-2H-pyrido[3,4-b]indol-2-yl)-N,N,2-trimethylpropanamide] | 5 nM
8 | C[C@@H]1Cc2c([nH]c3ccccc23)[C@@H](c2c(F)cc(OCCN3CC(CF)C3)cc2F)N1C[C@H](C)C(=O)O [Example 299, (S)-3-((1R,3R)-1-(2,6-difluoro-4-(2-(3-(fluoromethyl)azetidin-1-yl)ethoxy)phenyl)-3-methyl-1,3,4,9-tetrahydro-2H-pyrido[3,4-b]indol-2-yl)-2-methylpropanoic acid] | 3 nM
9 | C[C@H](CN1[C@H](c2c(F)cc(OCCN3CC(CF)C3)cc2F)c2[nH]c3ccccc3c2C[C@H]1C)C(=O)O [Example 300, (R)-3-((1R,3R)-1-(2,6-difluoro-4-(2-(3-(fluoromethyl)azetidin-1-yl)ethoxy)phenyl)-3-methyl-1,3,4,9-tetrahydro-2H-pyrido[3,4-b]indol-2-yl)-2-methylpropanoic acid] | 1 nM
10 | CC(C)(F)CN1[C@H](CF)Cc2c([nH]c3ccccc23)[C@H]1c1c(F)cc(OC2CN(CCCF)C2)cc1F [Example 301, (1R,3S)-1-(2,6-difluoro-4-((1-(3-fluoropropyl)azetidin-3-yl)oxy)phenyl)-2-(2-fluoro-2-methylpropyl)-3-(fluoromethyl)-2,3,4,9-tetrahydro-1H-pyrido[3,4-b]indole] | 0.0881 nM
11 | C[C@@H]1Cc2c([nH]c3ccccc23)[C@@H](c2c(F)cc(OC3CN(CCCF)C3)cc2F)N1CC(F)(F)CO [Example 302, 3-((1R,3R)-1-(2,6-difluoro-4-((1-(3-fluoropropyl)azetidin-3-yl)oxy)phenyl)-3-methyl-3,4-dihydro-1H-pyrido[3,4-b]indol-2(9H)-yl)-2,2-difluoropropan-1-ol] | 0.12 nM
12 | C[C@@H]1Cc2c([nH]c3ccccc23)[C@@H](c2c(F)cc(OC3CN(CCCF)C3)cc2F)N1CC(F)F [Example 303, (1R,3R)-2-(2,2-difluoroethyl)-1-[2,6-difluoro-4-[1-(3-fluoropropyl)azetidin-3-yl]oxy-phenyl]-3-methyl-1,3,4,9-tetrahydropyrido[3,4-b]indole] | 0.0482 nM
13 | C[C@@H]1Cc2c([nH]c3ccccc23)[C@@H](c2c(F)cc(OCCN3CC(CF)C3)cc2F)N1CC(F)F [Example 305, (1R,3R)-2-(2,2-difluoroethyl)-1-[2,6-difluoro-4-[2-[3-(fluoromethyl)azetidin-1-yl]ethoxy]phenyl]-3-methyl-1,3,4,9-tetrahydropyrido[3,4-b]indole] | 0.216 nM
14 | C[C@@H]1Cc2c([nH]c3ccccc23)[C@H](c2c(F)cc(OCCN3CC(CF)C3)cc2F)N1CC(F)F [Example 306, (1S,3R)-2-(2,2-difluoroethyl)-1-[2,6-difluoro-4-[2-[3-(fluoromethyl)azetidin-1-yl]ethoxy]phenyl]-3-methyl-1,3,4,9-tetrahydropyrido[3,4-b]indole] | 3 nM
15 | C[C@@H]1Cc2c([nH]c3ccccc23)[C@@H](c2c(F)cc(OC3CN(C4CC(F)(F)C4)C3)cc2F)N1CC(C)(C)F [Example 307, (1R,3R)-1-[4-[1-(3,3-difluorocyclobutyl)azetidin-3-yl]oxy-2,6-difluoro-phenyl]-2-(2-fluoro-2-methyl-propyl)-3-methyl-1,3,4,9-tetrahydropyrido[3,4-b]indole] | 0.193 nM
16 | C[C@@H]1Cc2c([nH]c3ccccc23)[C@@H](c2c(F)cc(OC3CN(C/C=C/F)C3)cc2F)N1CC(C)(C)F [Example 308, (1R,3R)-1-[2,6-difluoro-4-[1-[(E)-3-fluoroallyl]azetidin-3-yl]oxy-phenyl]-2-(2-fluoro-2-methyl-propyl)-3-methyl-1,3,4,9-tetrahydropyrido[3,4-b]indole] | 0.127 nM
17 | C=CS(=O)(=O)N1[C@H](c2ccc(OCCN3CC(CF)C3)cc2)c2[nH]c3ccccc3c2C[C@H]1C [Example 312, (1R,3R)-1-[4-[2-[3-(fluoromethyl)azetidin-1-yl]ethoxy]phenyl]-3-methyl-2-vinylsulfonyl-1,3,4,9-tetrahydropyrido[3,4-b]indole] | 2 nM
18 | CNS(=O)(=O)N1[C@H](c2ccc(OCCN3CC(CF)C3)cc2)c2[nH]c3ccccc3c2C[C@H]1C [Example 313, (1R,3R)-1-[4-[2-[3-(fluoromethyl)azetidin-1-yl]ethoxy]phenyl]-N,3-dimethyl-1,3,4,9-tetrahydropyrido[3,4-b]indole-2-sulfonamide] | 1 nM

More lines, now with the values ahead:

Row | EC50 | Compound
19 | 0.199 nM | C[C@@H]1Cc2c([nH]c3ccccc23)[C@@H](c2c(F)cc(NC3CN(CCCF)C3)cc2F)N1C[C@](C)(F)CO [Example 289, (S)-3-((1R,3R)-1-(2,6-difluoro-4-((1-(3-fluoropropyl)azetidin-3-yl)amino)phenyl)-3-methyl-1,3,4,9-tetrahydro-2H-pyrido[3,4-b]indol-2-yl)-2-fluoro-2-methylpropan-1-ol]
20 | 21 nM | CC(=O)CN1[C@@H](c2c(F)cc(OC3CN(CCCF)C3)cc2F)c2[nH]c3ccccc3c2C[C@H]1C [Example 295, 1-((1S,3R)-1-(2,6-difluoro-4-((1-(3-fluoropropyl)azetidin-3-yl)oxy)phenyl)-3-methyl-1,3,4,9-tetrahydro-2H-pyrido[3,4-b]indol-2-yl)propan-2-one]
21 | 0.224 nM | C[C@@H]1Cc2c([nH]c3ccccc23)[C@@H](c2c(F)cc(NC3CN(CCCF)C3)cc2F)N1CC(F)(F)F [Example 304, N-(3,5-difluoro-4-((1R,3R)-3-methyl-2-(2,2,2-trifluoroethyl)-2,3,4,9-tetrahydro-1H-pyrido[3,4-b]indol-1-yl)phenyl)-1-(3-fluoropropyl)azetidin-3-amine]
22 | 6 nM | CC(CN1[C@H](c2c(F)cc(OC3CN(CCCF)C3)cc2F)c2[nH]c3ccccc3c2C[C@H]1C)S(C)(=O)=O (stereo partly drawn) [Example 309, (1R,3R)-1-(2,6-difluoro-4-((1-(3-fluoropropyl)azetidin-3-yl)oxy)phenyl)-3-methyl-2-(2-(methylsulfonyl)propyl)-2,3,4,9-tetrahydro-1H-pyrido[3,4-b]indole]
23 | 0.708 nM | C[C@@H]1Cc2c([nH]c3ccccc23)[C@@H](c2ccc(NC3CN(CCCF)C3)cc2)N1S(C)(=O)=O [Example 310, 1-(3-fluoropropyl)-N-[4-[(1R,3R)-3-methyl-2-methylsulfonyl-1,3,4,9-tetrahydropyrido[3,4-b]indol-1-yl]phenyl]azetidin-3-amine]
24 | 0.248 nM | C[C@@H]1Cc2c([nH]c3ccccc23)[C@@H](c2c(F)cc(NC3CN(CCCF)C3)cc2F)N1S(C)(=O)=O [Example 311, N-[3,5-difluoro-4-[(1R,3R)-3-methyl-2-methylsulfonyl-1,3,4,9-tetrahydropyrido[3,4-b]indol-1-yl]phenyl]-1-(3-fluoropropyl)azetidin-3-amine]
25 | 9 nM | C[C@@H]1Cc2c([nH]c3ccccc23)[C@H](c2ccc(NC3CN(CCCF)C3)cc2)N1S(C)(=O)=O [Example 314, 1-(3-fluoropropyl)-N-[4-[(1S,3R)-3-methyl-2-methylsulfonyl-1,3,4,9-tetrahydropyrido[3,4-b]indol-1-yl]phenyl]azetidin-3-amine]
26 | 2 nM | C[C@@H]1Cc2c([nH]c3ccccc23)[C@H](c2c(F)cc(NC3CN(CCCF)C3)cc2F)N1S(C)(=O)=O [Example 315, N-[3,5-difluoro-4-[(1S,3R)-3-methyl-2-methylsulfonyl-1,3,4,9-tetrahydropyrido[3,4-b]indol-1-yl]phenyl]-1-(3-fluoropropyl)azetidin-3-amine]
